Source: PubChem BioAssay AID624367 (Broad Institute, 2012)
Activity calls are given as the source filed them. No rule for the calls is given here.

Test system: Lymphoblastoid cell line (LCL) cytotoxicity, plate reader
Assay: lymphoblastoid cell cytotoxicity, dose response, cytotoxicity control, plate reader, dry powder, set 2 (AID 624367)
Settings: not given

Row | Compound | AC35
1 | O=C(C[C@@H]1C[C@@H]2c3cc(NS(=O)(=O)c4ccc(F)cc4)ccc3O[C@@H]2[C@@H](CO)O1)NCc1ccc(Oc2ccccc2)cc1 | 22.2 µM
2 | O=C(C[C@@H]1C[C@@H]2c3cc(NC(=O)c4ccc5c(c4)OCO5)ccc3O[C@@H]2[C@@H](CO)O1)NCc1ccc(Oc2ccccc2)cc1 | 16 µM
3 | CN(C)c1ccc2c(c1)[C@@H]1C[C@H](CC(=O)NCc3ccc(Oc4ccccc4)cc3)O[C@@H](CO)[C@@H]1O2 | 30.4 µM
4 | O=C(Nc1ccc(C(F)(F)F)cc1)Nc1ccc2c(c1)[C@@H]1C[C@H](CC(=O)N3CCc4ccccc4C3)O[C@H](CO)[C@@H]1O2 | 36.7 µM
5 | O=C(C[C@H]1C[C@H]2c3cc(NC(=O)c4ccc5c(c4)OCO5)ccc3O[C@H]2[C@H](CO)O1)NCc1ccc(Oc2ccccc2)cc1 | 33.8 µM
6 | O=C(C[C@H]1C[C@@H]2c3cc(NS(=O)(=O)c4ccc(F)cc4)ccc3O[C@@H]2[C@@H](CO)O1)NCc1ccc(Oc2ccccc2)cc1 | 34.7 µM

Test system: not listed separately
Assay: as above
Settings: Lymphoblastoid cell line (LCL) cytotoxicity, plate reader; at 16 µM (top of the series)

Row | Compound | activity change, negative = cytotoxicity
7 | C[C@@H]1CN([C@H](C)CO)C(=O)Cc2cc(NC(=O)Cc3ccccc3)ccc2O[C@@H]1CN(C)Cc1ccc(C(F)(F)F)cc1 | 4.6% (inactive)

Same assay, conditions: Lymphoblastoid cell line (LCL) cytotoxicity, plate reader; at 30 µM (top of the series)

Row | Compound | activity change, negative = cytotoxicity
8 | Cc1noc(C)c1S(=O)(=O)Nc1ccc2c(c1)C(=O)N([C@@H](C)CO)C[C@H](C)[C@H](CN(C)Cc1ccc(C(F)(F)F)cc1)OCCCC[C@@H](C)O2 | -7.54% (inactive)

Same assay, conditions: Lymphoblastoid cell line (LCL) cytotoxicity, plate reader; at 35 µM (top of the series)

Row | Compound | activity change, negative = cytotoxicity
9 | C[C@@H](NC(=O)C[C@H]1C=C[C@@H](NC(=O)Cc2ccccn2)[C@@H](CO)O1)c1ccccc1 | -7.23% (inactive)
10 | C[C@@H](NC(=O)C[C@@H]1C=C[C@H](NC(=O)Cc2ccccn2)[C@H](CO)O1)c1ccccc1 | 6.45% (inactive)
11 | COc1cccc(-c2cccc(-c3nc(C(=O)NCC(F)(F)F)cc4c3[C@H](CCO)N([S@@](=O)C(C)(C)C)C4)c2)c1 | -12.4% (inactive)
12 | COc1ccc(-c2cccc(-c3nc(C(=O)NCC(F)(F)F)cc4c3[C@H](CCO)N([S@@](=O)C(C)(C)C)C4)c2)cc1 | -13.3% (inactive)
13 | CN1C(=O)c2cc(NC(=O)Cc3cccs3)ccc2OC[C@@H]2O[C@H](CC(=O)NCc3ccc(-c4ccccc4)cc3)CC[C@H]21 | -7.27% (inactive)
14 | CN1C(=O)c2cc(NC(=O)c3ccc(C(F)(F)F)cc3)ccc2OC[C@@H]2O[C@H](CC(=O)NC3Cc4ccccc4C3)CC[C@H]21 | -1.04% (inactive)
15 | Cc1noc(C)c1S(=O)(=O)Nc1ccc2c(c1)C(=O)N([C@@H](C)CO)C[C@@H](C)[C@@H](CN(C)Cc1ccc(C(F)(F)F)cc1)OCCCC[C@@H](C)O2 | -5.16% (inactive)
16 | C[C@H](CO)N1C[C@H](C)[C@H](CN(C)Cc2ccc(C(F)(F)F)cc2)Oc2ccc(NC(=O)Cc3ccccc3)cc2CC1=O | 3.51% (inactive)
17 | CC(C)NC(=O)N1[C@H](CO)[C@H](c2ccc(C#CC3CCCCC3)cc2)[C@@H]1C#N | -1.32% (inactive)
18 | C[C@@H](NC(=O)C[C@H]1C=C[C@H](NC(=O)Cc2ccccn2)[C@@H](CO)O1)c1ccccc1 | -5.21% (inactive)
19 | Cc1noc(C)c1S(=O)(=O)Nc1ccc2c(c1)C(=O)N([C@H](C)CO)C[C@@H](C)[C@@H](CN(C)Cc1ccc(C(F)(F)F)cc1)OCCCC[C@@H](C)O2 | 1.01% (inactive)
20 | Cc1noc(C)c1S(=O)(=O)Nc1ccc2c(c1)C(=O)N([C@H](C)CO)C[C@H](C)[C@H](CN(C)Cc1ccc(C(F)(F)F)cc1)OCCCC[C@H](C)O2 | -5.76% (inactive)
21 | Cc1noc(C)c1S(=O)(=O)Nc1ccc2c(c1)C(=O)N([C@@H](C)CO)C[C@H](C)[C@H](CN(C)Cc1ccc(C(F)(F)F)cc1)OCCCC[C@H](C)O2 | -5.45% (inactive)
22 | C[C@@H]1CN([C@H](C)CO)C(=O)c2c(c3ccccc3n2C)-c2ccccc2CO[C@H]1CN(C)C(=O)Nc1ccc(F)cc1 | 1.26% (inactive)
23 | COc1cccc(C(=O)Nc2ccc3c(c2)C(=O)N(C)C[C@H](OC)[C@@H](C)CN(CCc2ccccc2)[C@@H](C)CO3)c1 | -13% (inactive)
24 | CCCNC(=O)c1cc2c(c(-c3cccc(-c4cccc(F)c4)c3)n1)[C@H](CCO)N([S@@](=O)C(C)(C)C)C2 | -1.43% (inactive)
25 | C[C@@H](NC(=O)C[C@@H]1C=C[C@@H](NC(=O)Cc2ccccn2)[C@@H](CO)O1)c1ccccc1 | -0.658% (inactive)
26 | C[C@@H]1CN([C@H](C)CO)C(=O)Cc2cc(NC(=O)Cc3ccccc3)ccc2O[C@H]1CN(C)Cc1ccc(C(F)(F)F)cc1 | 3.94% (inactive)
27 | COC(=O)C[C@@H]1C[C@@H]2c3cc(NC(=O)CN(C)C)ccc3O[C@@H]2[C@@H](CO)O1 | -2.96% (inactive)
28 | CC(C)(C)[S@@](=O)N1Cc2cc(C(=O)NCc3ccccn3)nc(-c3cccc(-c4ccccc4F)c3)c2[C@H]1CCO | -1.27% (inactive)
29 | C[C@@H](NC(=O)C[C@H]1C=C[C@@H](NC(=O)Cc2ccccn2)[C@H](CO)O1)c1ccccc1 | -1.43% (inactive)
30 | Cc1ccc(S(=O)(=O)N(C)C[C@H]2Oc3cc(C#Cc4ccncc4)ccc3S(=O)(=O)N([C@@H](C)CO)C[C@H]2C)cc1 | -6.9% (inactive)
31 | Cc1ccc(S(=O)(=O)N(C)C[C@H]2Oc3cc(C#Cc4ccncc4)ccc3S(=O)(=O)N([C@@H](C)CO)C[C@@H]2C)cc1 | 8.38% (inactive)
32 | CC(=O)N(C)C[C@@H]1Oc2cc(C#Cc3ccc(F)cc3)ccc2S(=O)(=O)N([C@H](C)CO)C[C@H]1C | 1.69% (inactive)

Row | Compound | activity change, negative = cytotoxicity
33 | O=C(C[C@@H]1CC[C@@H]2[C@H](COC[C@@H](O)CN2Cc2ccc3c(c2)OCO3)O1)Nc1ccc(-c2ccccc2)cc1 | -8.48% (inactive)
34 | O=C(Cc1ccccn1)NCC[C@@H]1CC[C@H](NC(=O)Nc2ccc(Cl)cc2)[C@@H](CO)O1 | 6.35% (inactive)
35 | C[C@H](NC(=O)C[C@@H]1C=C[C@H](NC(=O)Cc2ccccn2)[C@@H](CO)O1)c1ccccc1 | 4.27% (inactive)
36 | CC(C)c1ccc(NC(=O)C[C@H]2CC[C@H]3[C@@H](COc4ccc(NC(=O)Nc5ccc(F)c(F)c5)cc4C(=O)N3C)O2)cc1 | -0.979% (inactive)
37 | COC(=O)C[C@H]1C[C@H]2c3cc(NC(=O)CN(C)C)ccc3O[C@H]2[C@H](CO)O1 | 3.27% (inactive)
38 | CC(C)NC(=O)N1Cc2cc(C(=O)NC3Cc4ccccc4C3)nc(-c3cccc(-c4cccnc4)c3)c2[C@@H]1CCO | 0.066% (inactive)
39 | C/C=C/c1cccc(-c2nc(C(=O)Nc3nccs3)cc3c2[C@@H](CCO)N(C(=O)NC(C)C)C3)c1 | 3.79% (inactive)
40 | COc1ccccc1C#Cc1cnc2c(c1)C(=O)N([C@@H](C)CO)C[C@H](C)[C@@H](CN(C)C(=O)c1ccc3c(c1)OCO3)O2 | 16.2% (inactive)
41 | CCC(=O)N1Cc2cc(C(=O)Nc3nccs3)nc(-c3cccc(-c4ccccc4OC)c3)c2[C@H]1CCO | -2.48% (inactive)
42 | CN(C)c1ccc2c(c1)[C@@H]1C[C@@H](CC(=O)NCc3ccc(Oc4ccccc4)cc3)O[C@@H](CO)[C@@H]1O2 | 8.56% (inactive)
43 | C[C@@H]1CN([C@@H](C)CO)C(=O)c2c(c3ccccc3n2C)-c2ccccc2CO[C@@H]1CN(C)C(=O)Nc1ccc(F)cc1 | -5.86% (inactive)
44 | C[C@H]1CN([C@@H](C)CO)C(=O)c2cc(C#Cc3ccccc3F)cnc2O[C@@H]1CN(C)C(=O)C1CCCCC1 | 8.49% (inactive)
45 | C[C@@H]1CN([C@@H](C)CO)S(=O)(=O)c2ccc(C#Cc3ccncc3)cc2O[C@H]1CN(C)C(=O)Nc1ccc2c(c1)OCO2 | -1.7% (inactive)
46 | C[C@H](CO)N1C[C@H](C)[C@@H](CN(C)S(=O)(=O)c2cccc(F)c2)Oc2ncc(C#CC3CCCCC3)cc2C1=O | 4.17% (inactive)
47 | COc1ccccc1CNC(=O)C[C@H]1C[C@@H]2c3cc(NC(=O)CN(C)C)ccc3O[C@@H]2[C@@H](CO)O1 | 2.15% (inactive)
48 | Cc1noc(C)c1S(=O)(=O)Nc1ccc2c(c1)C(=O)N([C@@H](C)CO)C[C@@H](C)[C@H](CN(C)Cc1ccc(C(F)(F)F)cc1)OCCCC[C@@H](C)O2 | -6.19% (inactive)
49 | C[C@H](NC(=O)C[C@H]1C=C[C@@H](NC(=O)Cc2ccccn2)[C@H](CO)O1)c1ccccc1 | 9.63% (inactive)
50 | O=C(Cc1ccccn1)NCC[C@H]1CC[C@H](NC(=O)Nc2ccc(Cl)cc2)[C@@H](CO)O1 | 3.54% (inactive)
51 | C[C@H](NC(=O)C[C@H]1C=C[C@H](NC(=O)Cc2ccccn2)[C@@H](CO)O1)c1ccccc1 | 0.993% (inactive)
52 | CS(=O)(=O)Nc1ccc2c(c1)[C@@H]1C[C@H](CC(=O)NCC3CC3)O[C@H](CO)[C@@H]1O2 | 1.53% (inactive)
53 | C[C@H]1CN([C@@H](C)CO)C(=O)Cc2cc(NC(=O)Cc3ccccc3)ccc2O[C@H]1CN(C)Cc1ccc(C(F)(F)F)cc1 | 2.21% (inactive)
54 | O=C(C[C@@H]1CC[C@H]2[C@@H](COC[C@H](O)CN2Cc2ccc(Oc3ccccc3)cc2)O1)N1CCc2ccccc2C1 | -13.4% (inactive)
55 | O=C(C[C@H]1C[C@@H]2c3cc(NC(=O)c4ccc5c(c4)OCO5)ccc3O[C@@H]2[C@@H](CO)O1)NCc1ccc(Oc2ccccc2)cc1 | -5.15% (inactive)
56 | COc1ccccc1C(=O)Nc1ccc2c(c1)C(=O)N(C)[C@@H]1CC[C@H](CC(=O)NCCc3ccncc3)O[C@H]1CO2 | 0.764% (inactive)
